Laboratory results published in patent publication US10752647B2, “N-phosphonoxymethyl prodrugs of hydroxyalkyl thiadiazole derivatives” (DAIICHI SANKYO COMPANY, LIMITED, priority 2017, dated 2020).

Assays:
Type in all cases: in vivo
[1] = Conversion efficiency / PK profile after IV dose in monkeys; conditions: Monkey, plasma, parent compound IV 1 mg/kg; read-out: Parent compound AUCinf
Protocol: (§1) Method of Testing Conversion Efficiency Determination of conversion efficiency of Compound No. 1 and Compound No. 2 was conducted in rodents (mice and rats) and non-rodents (monkeys and dogs). Animals were divided in two groups with two animals in each group. One group received an intravenous (IV) dose of prodrug and the other group received an IV dose of parent compound. The dose of prodrug was taken as molar equivalent dose of parent compound. Serial blood sampling was carried out at 0.083, 0.33, 1, 2, 4, 8 and 24 h post IV dose from both the animal groups. Blood samples were centrifuged to harvest plasma. Plasma samples were stored at −80° C. until analysis. Plasma samples of prodrug administered animals were simultaneously analyzed for both analytes (prodrug and parent compound) using LC-MS/MS. Area under the curve (AUC) of plasma concentrations versus time profiles were calculated in WinNonlin software and percentage conversion efficiency was determined using the formula: Percentage conversion efficiency=(AUCiv of parent compound (from prodrug administered samples)×100/(AUCiv of parent compound (from parent compound administered samples). PK profile of Compounds No. 1 and No. 2 in rats, dogs and monkeys are depicted in Table 5 and 6, respectively (also shown in FIGS. 1 and 2).

[2] = Conversion efficiency / PK profile after IV dose in rats (Compounds No. 1 and No. 2); conditions: Rat, plasma, parent compound IV 12.5 mg/kg; read-out: Parent compound AUCinf
Protocol: as §1

[3] = Conversion efficiency / PK profile after IV dose in dogs; conditions: Dog, plasma, parent compound IV 1 mg/kg; read-out: Parent compound AUCinf
Protocol: as §1

AUC(0-inf) [1]: 6250 ng·h/mL
AUC(0-inf) [2]: 17700 ng·h/mL
AUC(0-inf) [3]: 29400 ng·h/mL
Structure (SMILES): CCc1[nH]c(C(=O)N[C@@H]2CCN(c3nnc(C(C)(C)O)s3)C[C@@H]2OC)nc1Cl [Parent compound of Compound No. 1, 4-chloro-5-ethyl-N-{(3S,4R)-1-[5-(1-hydroxy-1-methylethyl)-1,3,4-thiadiazol-2-yl]-3-methoxypiperidin-4-yl}-1H-imidazole-2-carboxamide]
